Data as given in the supplement of paper PMC11061612.

Legend:
[1] = compound: C=CCn1c(=O)c2cnc(Nc3ccc(N4CCN(C)CC4)cc3)nc2n1-c1cccc(C(C)(C)O)n1 [AZD1775]; settings: max 3 µM
Method in brief: (§1)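 Cancer cell lines were seeded in 1536-well plates in 7.5 μl DMEM/F12 or RPMI with 10% FBS, held 24 hours at 37°C and 5% CO2, then dosed for 72 hours (final DMSO typically 0.2%). Viability was read by CellTiter-Glo 2.0 luminescence and scaled between blank-well and DMSO-well means. The single-agent IC50 comes from dose responses fitted to a two-parameter logistic curve with a non-linear mixed effects model.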

[2] = compound: CC(=O)Nc1cccc(-n2c(=O)n(C3CC3)c(=O)c3c(Nc4ccc(I)cc4F)n(C)c(=O)c(C)c32)c1 [Trametinib]; settings: max 1 µM
Method in brief: as §1

[3] = compound: Cc1cc2ncnn2cc1Nc1ncc2c(n1)n(C1CCOCC1)c(=O)n2C [AZD7648]; settings: max 10 µM
Method in brief: as §1

[4] = compound: O=c1[nH]cc(F)c(=O)[nH]1 [5-Fluorouracil]; settings: max 20 µM
Method in brief: as §1

[5] = compound: Nc1ccn([C@@H]2O[C@H](CO)[C@@H](O)C2(F)F)c(=O)n1 [Gemcitabine]; settings: max 0.3 µM
Method in brief: as §1

[6] = compound: COc1cc([C@@H]2c3cc4c(cc3[C@@H](O[C@@H]3O[C@@H]5CO[C@@H](C)O[C@H]5[C@H](O)[C@H]3O)[C@H]3COC(=O)[C@H]23)OCO4)cc(OC)c1O [Etoposide]; settings: max 10 µM
Method in brief: as §1

[7] = compound: C1CN(CCC1(C(=O)N[C@@H](CCO)C2=CC=C(C=C2)Cl)N)C3=NC=NC4=C3C=CN4 [AZD5363]; settings: max 10 µM
Method in brief: as §1

[8] = compound: Cc1nc(-c2cn3c(n2)-c2ccc(-c4cnn(C(C)(C)C(N)=O)c4)cc2OCC3)n(C(C)C)n1 [Taselisib]; settings: max 10 µM
Method in brief: as §1

[9] = compound: CC(=O)c1c(C)c2cnc(Nc3ccc(N4CCNCC4)cn3)nc2n(C2CCCC2)c1=O [Palbociclib]; settings: max 10 µM
Method in brief: as §1

[10] = compound: CCc1c2c(nc3ccc(O)cc13)-c1cc3c(c(=O)n1C2)COC(=O)[C@]3(O)CC [SN-38]; settings: max 0.3 µM
Method in brief: as §1

[11] = compound: CC1=CN2[C@@H](C1)C=NC3=CC(=C(C=C3C2=O)OC)OCCCCCOC4=C(C=C5C(=C4)N=C[C@@H]6CC(=CN6C5=O)C)OC [SG3199]; settings: max 0.001 µM
Method in brief: as §1

[12] = compound: COc1cc2ncnc(Nc3ccc(F)c(Cl)c3)c2cc1OCCCN1CCOCC1 [Gefitinib]; settings: max 10 µM
Method in brief: as §1

[13] = compound: C[C@@H](Nc1cc(F)cc(F)c1)c1cc(C(=O)N(C)C)cc2c(=O)cc(N3CCOCC3)oc12 [AZD8186]; settings: max 10 µM
Method in brief: as §1

[14] = compound: CC1=C(C(=CC=C1)Cl)NC(=O)C2=CN=C(S2)NC3=CC(=NC(=N3)C)N4CCN(CC4)CCO [Dasatinib]; settings: max 2 µM
Method in brief: as §1

[15] = compound: COc1cccc2c1C(=O)c1c(O)c3c(c(O)c1C2=O)C[C@@](O)(C(=O)CO)C[C@@H]3O[C@H]1C[C@H](N)[C@H](O)[C@H](C)O1 [Doxorubicin]; settings: max 1 µM
Method in brief: as §1

[16] = compound: N#Cc1cnc(Nc2cc(NC[C@H]3CNCCO3)c(C(F)(F)F)cn2)cn1 [SRA737]; settings: max 10 µM
Method in brief: as §1

[17] = compound: Cc1c2c(nn1C)CSCc1cc(n(C)n1)CSc1cc(c3ccccc3c1)OCCCc1c(C(=O)O)n(C)c3c-2c(Cl)ccc13 [AZD5991]; settings: max 1 µM
Method in brief: as §1

[18] = compound: C[C@@H](Oc1cc(-c2cnn(C3CCNCC3)c2)cnc1N)c1c(Cl)ccc(F)c1Cl [Crizotinib]; settings: max 10 µM
Method in brief: as §1

[19] = compound: NC1(c2ccc(-c3nc4ccn5c(=O)[nH]nc5c4cc3-c3ccccc3)cc2)CCC1 [MK-2206]; settings: max 10 µM
Method in brief: as §1

[20] = compound: CCN(CCO)CCCOc1ccc2c(Nc3cc(CC(=O)Nc4cccc(F)c4)[nH]n3)ncnc2c1 [AZD2811]; settings: max 1 µM
Method in brief: as §1

[21] = compound: COc1nnc2ccc(N3CCC(c4ccc(OCCN5CCN(C)C(=O)[C@H]5C)cc4)CC3)nn12 [AZD5153]; settings: max 1 µM
Method in brief: as §1

[22] = compound: C[C@@H]1COCCN1C2=NC(=NC(=C2)C3(CC3)[S@](=N)(=O)C)C4=C5C=CNC5=NC=C4 [AZD6738]; settings: max 10 µM
Method in brief: as §1

[23] = compound: O=C(Nc1ccc2[nH]nc(-c3ccncc3)c2c1)[C@@H]1CCN(CC(=O)N2CCN(c3ccc(-c4ncccn4)cc3)CC2)C1; settings: max 5 µM
Method in brief: as §1

[24] = compound: CC(C)n1c(=O)n(C)c2cnc3cc(F)c(-c4ccc(OCCCN5CCCCC5)nc4)cc3c21 [AZD1390]; settings: max 0.3 µM
Method in brief: as §1

[25] = compound: CN(CC[C@H](CSC1=CC=CC=C1)NC2=C(C=C(C=C2)S(=O)(=O)NC(=O)C3=CC=C(C=C3)N4CCC(CC4)[C@H](C5=CC=CC=C5C6=CC=C(C=C6)Cl)O)S(=O)(=O)C(F)(F)F)CCO [AZD4320]; settings: max 1 µM
Method in brief: as §1

[26] = compound: CS(=O)(=O)CCNCc1ccc(-c2ccc3ncnc(Nc4ccc(OCc5cccc(F)c5)c(Cl)c4)c3c2)o1 [Lapatinib]; settings: max 10 µM
Method in brief: as §1

[27] = compound: C[C@@H](c1ccc2nccn2c1)n1nnc2ncc(-c3cnn(C)c3)nc21 [Savolitinib]; settings: max 1 µM
Method in brief: as §1

[28] = compound: CN(C)CCCOc1ccc(-c2ccc3ncc4c(c3c2)n(C2CCOCC2)c(=O)n4C)cn1 [AZD0156]; settings: max 3 µM
Method in brief: as §1

[29] = compound: O=C(c1cc(Cc2n[nH]c(=O)c3ccccc23)ccc1F)N1CCN(C(=O)C2CC2)CC1 [Olaparib]; settings: max 10 µM
Method in brief: as §1

[30] = compound: C1CC(C1)(C(=O)[O-])C(=O)[O-].N.N.[Pt+2] [Carboplatin]; settings: max 10 µM
Method in brief: as §1

[31] = compound: COc1cc(Nc2ncc3c(n2)-c2ccc(Cl)cc2C(c2c(F)cccc2OC)=NC3)ccc1C(=O)O [Alisertib]; settings: max 10 µM
Method in brief: as §1

[32] = compound: CC(=O)O[C@H]1C(=O)[C@@]2(C)[C@H]([C@H](OC(=O)c3ccccc3)[C@]3(O)C[C@H](OC(=O)[C@H](O)[C@@H](NC(=O)c4ccccc4)c4ccccc4)C(C)=C1C3(C)C)[C@]1(OC(C)=O)CO[C@@H]1C[C@@H]2O [Paclitaxel]; settings: max 3 µM
Method in brief: as §1

[33] = compound: CC1(C)CCC(CN2CCN(c3ccc(C(=O)NS(=O)(=O)c4ccc(NCC5CCOCC5)c([N+](=O)[O-])c4)c(Oc4cnc5[nH]ccc5c4)c3)CC2)=C(c2ccc(Cl)cc2)C1 [Venetoclax]; settings: max 1 µM
Method in brief: as §1

[34] = compound: Cn1cnc2c(F)c(Nc3ccc(Br)cc3Cl)c(C(=O)NOCCO)cc21 [Selumetinib]; settings: max 10 µM
Method in brief: as §1

[35] = compound: COc1cccc(OCCCN)c1-c1cc(Nc2cnc(C#N)cn2)n[nH]1 [Prexasertib]; settings: max 1 µM
Method in brief: as §1

Cell Line | IC50, cell viability 72 h [1] [nM] | IC50, cell viability 72 h [2] [nM] | IC50, cell viability 72 h [3] [nM] | IC50, cell viability 72 h [4] [nM] | IC50, cell viability 72 h [5] [nM] | IC50, cell viability 72 h [6] [nM] | IC50, cell viability 72 h [7] [nM] | IC50, cell viability 72 h [8] [nM] | IC50, cell viability 72 h [9] [nM] | IC50, cell viability 72 h [10] [nM] | IC50, cell viability 72 h [11] [nM] | IC50, cell viability 72 h [12] [nM] | IC50, cell viability 72 h [13] [nM] | IC50, cell viability 72 h [14] [nM] | IC50, cell viability 72 h [15] [nM] | IC50, cell viability 72 h [16] [nM] | IC50, cell viability 72 h [17] [nM] | IC50, cell viability 72 h [18] [nM] | IC50, cell viability 72 h [19] [nM] | IC50, cell viability 72 h [20] [nM] | IC50, cell viability 72 h [21] [nM] | IC50, cell viability 72 h [22] [nM] | IC50, cell viability 72 h [23] [nM] | IC50, cell viability 72 h [24] [nM] | IC50, cell viability 72 h [25] [nM] | IC50, cell viability 72 h [26] [nM] | IC50, cell viability 72 h [27] [nM] | IC50, cell viability 72 h [28] [nM] | IC50, cell viability 72 h [29] [nM] | IC50, cell viability 72 h [30] [nM] | IC50, cell viability 72 h [31] [nM] | IC50, cell viability 72 h [32] [nM] | IC50, cell viability 72 h [33] [nM] | IC50, cell viability 72 h [34] [nM] | IC50, cell viability 72 h [35] [nM]
BC-1 (B-Cell Non-Hodgkin's Lymphoma) | 321 | > 1000 | > 10000 | 17200 | 15.4 | 770 | 4400 | > 10000 | 342 | 5.32 | > 1 | 9560 | > 10000 | > 2000 | 50 | 2700 | 87.2 | 1690 | 4100 | 199 | 17.5 | 2950 | > 5000 | > 300 | > 1000 | 8740 | > 1000 | 2420 | > 10000 | > 10000 | 65.3 | 12.1 | > 1000 | > 10000 | 13
C32 (Melanoma) | > 3000 | 4.11 | > 10000 | > 20000 | 54.1 | > 10000 | > 10000 | > 10000 | > 10000 | 61.7 | > 1 | > 10000 | > 10000 | > 2000 | > 1000 | > 10000 | > 1000 | > 10000 | > 10000 | > 1000 | > 1000 | 8160 | 174 | > 300 | > 1000 | > 10000 | > 1000 | > 3000 | > 10000 | > 10000 | > 10000 | 346 | > 1000 | 323 | 52.7
CAL-85-1 (Breast Carcinoma) | 2040 | 351 | > 10000 | > 20000 | 246 | > 10000 | > 10000 | 6290 | > 10000 | 96.5 | > 1 | > 10000 | > 10000 | 1210 | > 1000 | > 10000 | > 1000 | > 10000 | > 10000 | > 1000 | 534 | > 10000 | > 5000 | > 300 | > 1000 | > 10000 | > 1000 | > 3000 | > 10000 | > 10000 | > 10000 | 66.7 | > 1000 | > 10000 | > 1000
COR-L105 (Lung Adenocarcinoma) | 2080 | 244 | > 10000 | > 20000 | > 300 | > 10000 | > 10000 | 7360 | > 10000 | > 300 | > 1 | 2490 | > 10000 | > 2000 | > 1000 | > 10000 | > 1000 | > 10000 | > 10000 | > 1000 | > 1000 | > 10000 | > 5000 | > 300 | > 1000 | 6660 | > 1000 | > 3000 | > 10000 | > 10000 | > 10000 | > 3000 | > 1000 | > 10000 | > 1000
GCIY (Gastric Carcinoma) | > 3000 | 271 | > 10000 | > 20000 | > 300 | > 10000 | > 10000 | 895 | > 10000 | 90 | > 1 | > 10000 | > 10000 | 589 | > 1000 | > 10000 | > 1000 | > 10000 | > 10000 | > 1000 | > 1000 | 3030 | > 5000 | > 300 | > 1000 | > 10000 | > 1000 | > 3000 | > 10000 | > 10000 | 1210 | 549 | > 1000 | > 10000 | 41.9
